Experimental data reported in ChEMBL document CHEMBL4334449, “Jorunnamycin A from Xestospongia sp. Suppresses Epithelial to Mesenchymal Transition and Sensitizes Anoikis in Human Lung Cancer Cells” (J Nat Prod, 2019).
Activity calls are given as the source filed them. The rule behind the calls is not given here.

Legend:
NCI-H23 [1] = assay: Induction of anoikis in human H23 cells harboring with p53 mutant under detachment conditions assessed as decrease in BCL-2 level at 0.05 to 0.5 uM after 12 hrs by Western blot analysis; format: functional, cell-based
NCI-H460 [2] = assay: Induction of anoikis in human H460 cells under detachment conditions assessed as decrease in BCL-2 level at 0.1 to 0.5 uM after 12 hrs by Western blot analysis; format: functional, cell-based
NCI-H460 [3] = assay: Induction of anoikis in human H460 cells under detachment conditions assessed as fold change at 0.5 uM after 24 hrs by Annexin V-FITC/propidium iodide staining-based flow cytometric analysis; format: functional
NCI-H23 [4] = assay: Antiproliferative activity against human H23 cells under detachment conditions assessed as reduction in cell viability at 0.05 to 0.5 uM up to 24 hrs by XTT assay; format: functional, cell-based
NCI-H460 [5] = assay: Induction of anoikis in human H460 cells […] under detachment conditions assessed as effect on P53 level at 0.05 to 0.5 uM after 12 hrs by Western blot analysis; format: functional, cell-based
NCI-H460 [6] = assay: Induction of anoikis in human H460 cells under detachment conditions after 12 hrs by Western blot analysis; format: functional, cell-based
NCI-H460 [7] = assay: Induction of apoptosis in human H460 cells under detachment conditions assessed as necrotic cells at 0.5 uM after 24 hrs by Annexin V-FITC/propidium iodide staining-based flow cytometric analysis (reference value: 1.58%); format: functional
NCI-H460 [8] = assay: Inhibition of colony formation in human H460 cells under detachment conditions assessed as reduction in number of colonies at 0.1 to 0.5 uM after 14 days by microscopic method; format: functional, cell-based
NCI-H23 [9] = assay: Induction of apoptosis in human H23 cells under detachment conditions assessed as early apoptotic cells at 0.5 uM after 24 hrs by Annexin V-FITC/propidium iodide staining-based flow cytometric analysis (reference value: 26.81%); format: functional
NCI-H460 [10] = assay: Antiproliferative activity against human H460 cells under detachment conditions assessed as reduction in cell viability at 0.1 to 0.5 uM after 3 hrs by XTT assay; format: functional, cell-based
NCI-H23 [11] = assay: Down regulation of caveolin-1 human H23 cells harboring with p53 mutant under detachment conditions at 0.05 to 0.5 uM after 12 hrs by Western blot analysis; format: functional, cell-based
NCI-H292 [12] = assay: Induction of apoptosis in human NCI-H292 cells under detachment conditions assessed as late apoptotic cells at 0.5 uM after 24 hrs by Annexin V-FITC/propidium iodide staining-based flow cytometric analysis (reference value: 28.21%); format: functional
NCI-H23 [13] = assay: Induction of apoptosis in human H23 cells under detachment conditions assessed as viable cells at 0.5 uM after 24 hrs by Annexin V-FITC/propidium iodide staining-based flow cytometric analysis (reference value: 69.96%); format: functional; settings: NCI-H23, 24 h, read-out: Activity
NCI-H460 [14] = assay: Induction of anoikis in human H460 cells under detachment conditions at 0.05 to 0.5 uM after 24 hrs by Hoechst 33342/propidium iodide staining based fluorescent microscopic method; format: functional, cell-based
NCI-H23 [15] = assay: Antiproliferative activity against human H23 cells assessed as reduction in cell viability at 0.05 to 0.5 uM; format: functional, cell-based
NCI-H460 [16] = assay: Effect on total ERK protein level in human H460 cells under detachment conditions at 0.05 to 0.5 uM after 12 hrs by Western blot analysis; format: ADME, cell-based; settings: nci-h460, 12 h
NCI-H292 [17] = assay: Inhibition of colony formation in human NCI-H292 cells under detachment conditions assessed as reduction in size of colonies at 0.1 to 0.5 uM after 14 days by microscopic method; format: functional, cell-based
NCI-H460 [18] = assay: Induction of apoptosis in human H460 cells assessed as accumulation of necrotic cells at 0.05 to 1 uM after 24 hrs by Hoechst 33342/propidium iodide staining based fluorescent microscopic method; format: functional, cell-based
NCI-H460 [19] = assay: Inhibition of colony formation in human H460 cells under detachment conditions assessed as reduction in size of colonies at 0.1 to 0.5 uM after 14 days by microscopic method; format: functional, cell-based
NCI-H23 [20] = assay: Induction of anoikis in human H23 cells harboring with p53 mutant under detachment conditions assessed as effect on Bax level at 0.05 to 0.5 uM after 12 hrs by Western blot analysis; format: functional, cell-based
NCI-H292 [21] = assay: Induction of apoptosis in human NCI-H292 cells under detachment conditions assessed as viable cells at 0.5 uM after 24 hrs by Annexin V-FITC/propidium iodide staining-based flow cytometric analysis (reference value: 40.55%); format: functional; settings: NCI-H292, 24 h, read-out: Activity
NCI-H460 [22] = assay: Inhibition of epithelial-mesenchymal transition in human H460 cells under detachment conditions assessed as increase in E-cadherin protein level 0.05 to 0.5 uM after 12 hrs by Western blot analysis; format: functional, cell-based
NCI-H292 [23] = assay: Antiproliferative activity against human NCI-H292 cells assessed as reduction in cell viability at 0.05 to 0.5 uM; format: functional, cell-based
NCI-H292 [24] = assay: Induction of apoptosis in human NCI-H292 cells under detachment conditions assessed as early apoptotic cells at 0.5 uM after 24 hrs by Annexin V-FITC/propidium iodide staining-based flow cytometric analysis (reference value: 29.96%); format: functional
NCI-H460 [25] = assay: Inhibition of epithelial-mesenchymal transition in human H460 cells under detachment conditions assessed as decrease in vimentin protein level 0.05 to 0.5 uM after 12 hrs by Western blot analysis; format: functional, cell-based
NCI-H460 [26] = assay: Induction of apoptosis in human H460 cells at 1 uM after 24 hrs by Hoechst 33342/propidium iodide staining based fluorescent microscopic method; format: functional, cell-based
Homo sapiens = species: Homo sapiens; assay: Inhibition of ERK phosphorylation in human H23 cells harboring with p53 mutant under detachment conditions at 0.05 to 0.5 uM after 12 hrs by Western blot analysis; format: cell-based
NCI-H23 [27] = assay: Inhibition of colony formation in human H23 cells under detachment conditions assessed as reduction in number of colonies at 0.1 to 0.5 uM after 14 days by microscopic method; format: functional, cell-based
NCI-H460 [28] = assay: Induction of anoikis in human H460 cells under detachment conditions assessed as decrease in MCL-1 level at 0.05 to 0.5 uM after 12 hrs by Western blot analysis; format: functional, cell-based

## COC1=C(C)C(=O)C2=C(C1=O)[C@@H]1[C@@H]3CC4=C(C(=O)C(OC)=C(C)C4=O)[C@H](CO)N3[C@@H](C#N)[C@H](C2)N1C [JOURNNAMYCIN A]
NCI-H23 [1]
  Activity: Active
NCI-H460 [2]
  Activity: Active
NCI-H460 [3]
  Activity: 1.39%
NCI-H23 [4]
  Activity: Active
NCI-H460 [5]
  Activity: inactive
NCI-H460 [6]
  Activity: Dose-dependent effect
NCI-H460 [7]
  Activity: 24.2%
NCI-H460 [8]
  inhibition: Active
NCI-H23 [9]
  Activity: 37.79%
NCI-H460 [10]
  Activity: Active
NCI-H23 [11]
  Activity: Active
NCI-H292 [12]
  Activity: 28.13%
NCI-H23 [13]
  viability at 0.5 µM: 44.6%
NCI-H460 [14]
  Activity: Active
NCI-H23 [15]
  Activity: inactive
NCI-H460 [16]
  Activity: Non-Toxic
NCI-H292 [17]
  inhibition: Active
NCI-H460 [18]
  Activity: inactive
NCI-H460 [19]
  inhibition: Active
NCI-H23 [20]
  Activity: inactive
NCI-H292 [21]
  viability at 0.5 µM: 25.8%
NCI-H460 [22]
  inhibition: Active
NCI-H292 [23]
  Activity: inactive
NCI-H292 [24]
  Activity: 45.68%
NCI-H460 [25]
  inhibition: Active
NCI-H460 [26]
  Activity: Active
Homo sapiens
  inhibition: Active
NCI-H23 [27]
  inhibition: Active
NCI-H460 [28]
  Activity: Active
